Source: PubChem BioAssay AID2060496 (Molecular Pharmacology Branch, DTP, NCI, 2025)

System: 276233-004-R-J1-PDC complex spheroid viability
Assay: Anticancer human tumor 276233-004-R-J1-PDC patient-derived colon adenocarcinoma cell line growth inhibition [GQUAD]
Conditions: for IC50: curve of first compound; for viability, T/C: stronger effect = lower value; active = viability on the fitted dose curve at most 10% of control; inactive = the rest
In short: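 Viability of tumor cells grown as complex spheroids with endothelial and stromal cells, exposed to drug combinations. Top concentration at or near clinical Cmax (else 10 microM), diluted in half-log increments.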

[1] = second compound 0.0316 µM, first compound 0.0316 µM
[2] = second compound 0.0316 µM, first compound 0.316 µM
[3] = second compound 0.1 µM, first compound 0.0316 µM
[4] = second compound 0.1 µM, first compound 0.316 µM
[5] = second compound 0.316 µM, first compound 0.0316 µM
[6] = second compound 0.316 µM, first compound 0.316 µM
[7] = second compound 1 µM, first compound 0.0316 µM
[8] = second compound 1 µM, first compound 0.316 µM
[9] = second compound 3.16 µM, first compound 0.0316 µM
[10] = second compound 3.16 µM, first compound 0.316 µM
[11] = second compound 10 µM, first compound 0.0316 µM
[12] = second compound 10 µM, first compound 0.316 µM
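Also: spheroids exposed to drugs for seven days.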
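For viability, T/C in this document: 100% = DMSO vehicle control viability.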

Cn1ncnc1[C@H]1c2n[nH]c(=O)c3cc(F)cc(c23)N[C@@H]1c1ccc(F)cc1 + Cc1[nH]c2ccc(F)cc2c1-c1nc2c3cccnc3c3ncccc3c2[nH]1
inactive: viability, T/C (second compound 0.0316 µM, first compound 0.000999 µM) 89% | viability, T/C (second compound 0.0316 µM, first compound 0.00316 µM) 99.2% | viability, T/C (second compound 0.0316 µM, first compound 0.00999 µM) 104% | viability, T/C [1] 94.1% | viability, T/C (second compound 0.0316 µM, first compound 0.0999 µM) 95.6% | viability, T/C [2] 90.7% | viability, T/C (second compound 0.1 µM, first compound 0.000999 µM) 91.2% | viability, T/C (second compound 0.1 µM, first compound 0.00316 µM) 97.8% | viability, T/C (second compound 0.1 µM, first compound 0.00999 µM) 99.9% | viability, T/C [3] 88.5% | viability, T/C (second compound 0.1 µM, first compound 0.0999 µM) 98% | viability, T/C [4] 94.8% | viability, T/C (second compound 0.316 µM, first compound 0.000999 µM) 94.7% | viability, T/C (second compound 0.316 µM, first compound 0.00316 µM) 79.9% | viability, T/C (second compound 0.316 µM, first compound 0.00999 µM) 86.6% | viability, T/C [5] 99.2% | viability, T/C (second compound 0.316 µM, first compound 0.0999 µM) 100% | viability, T/C [6] 93% | viability, T/C (second compound 1 µM, first compound 0.000999 µM) 63.5% | viability, T/C (second compound 1 µM, first compound 0.00316 µM) 66.6% | viability, T/C (second compound 1 µM, first compound 0.00999 µM) 78.7% | viability, T/C [7] 72.7% | viability, T/C (second compound 1 µM, first compound 0.0999 µM) 70.6% | viability, T/C [8] 84.7% | viability, T/C (second compound 3.16 µM, first compound 0.000999 µM) 56.3% | viability, T/C (second compound 3.16 µM, first compound 0.00316 µM) 66.5% | viability, T/C (second compound 3.16 µM, first compound 0.00999 µM) 49.2% | viability, T/C [9] 54.2% | viability, T/C (second compound 3.16 µM, first compound 0.0999 µM) 60.4% | viability, T/C [10] 57.4% | viability, T/C (second compound 10 µM, first compound 0.000999 µM) 50.3% | viability, T/C (second compound 10 µM, first compound 0.00316 µM) 47.3% | viability, T/C (second compound 10 µM, first compound 0.00999 µM) 50.5% | viability, T/C [11] 62.7% | viability, T/C (second compound 10 µM, first compound 0.0999 µM) 62% | viability, T/C [12] 44.2%
> 316 nM: IC50 (second compound 0.0316 µM) | IC50 (second compound 0.1 µM) | IC50 (second compound 0.316 µM) | IC50 (second compound 1 µM) | IC50 (second compound 3.16 µM)
< 0.999 nM: IC50 (second compound 10 µM)

O=C(c1cc(Cc2n[nH]c(=O)c3ccccc23)ccc1F)N1CCN(C(=O)C2CC2)CC1 + Cc1[nH]c2ccc(F)cc2c1-c1nc2c3cccnc3c3ncccc3c2[nH]1
< 31.6 nM: IC50 (second compound 10 µM)
> 10000 nM: IC50 (second compound 0.0316 µM) | IC50 (second compound 0.1 µM) | IC50 (second compound 0.316 µM) | IC50 (second compound 1 µM) | IC50 (second compound 3.16 µM)
inactive: viability, T/C [1] 108% | viability, T/C (second compound 0.0316 µM, first compound 0.1 µM) 95.4% | viability, T/C [2] 92.5% | viability, T/C (second compound 0.0316 µM, first compound 1 µM) 73.3% | viability, T/C (second compound 0.0316 µM, first compound 3.16 µM) 95.1% | viability, T/C (second compound 0.0316 µM, first compound 10 µM) 83.4% | viability, T/C [3] 83.6% | viability, T/C (second compound 0.1 µM, first compound 0.1 µM) 90.4% | viability, T/C [4] 92% | viability, T/C (second compound 0.1 µM, first compound 1 µM) 90.4% | viability, T/C (second compound 0.1 µM, first compound 3.16 µM) 91.6% | viability, T/C (second compound 0.1 µM, first compound 10 µM) 101% | viability, T/C [5] 75.4% | viability, T/C (second compound 0.316 µM, first compound 0.1 µM) 86.2% | viability, T/C [6] 85% | viability, T/C (second compound 0.316 µM, first compound 1 µM) 91.1% | viability, T/C (second compound 0.316 µM, first compound 3.16 µM) 85.9% | viability, T/C (second compound 0.316 µM, first compound 10 µM) 81.4% | viability, T/C [7] 69% | viability, T/C (second compound 1 µM, first compound 0.1 µM) 79.5% | viability, T/C [8] 77.4% | viability, T/C (second compound 1 µM, first compound 1 µM) 69.7% | viability, T/C (second compound 1 µM, first compound 3.16 µM) 64.4% | viability, T/C (second compound 1 µM, first compound 10 µM) 83.2% | viability, T/C [9] 51.5% | viability, T/C (second compound 3.16 µM, first compound 0.1 µM) 64.2% | viability, T/C [10] 55.7% | viability, T/C (second compound 3.16 µM, first compound 1 µM) 55% | viability, T/C (second compound 3.16 µM, first compound 3.16 µM) 56.3% | viability, T/C (second compound 3.16 µM, first compound 10 µM) 59.6% | viability, T/C [11] 48.8% | viability, T/C (second compound 10 µM, first compound 0.1 µM) 50.9% | viability, T/C [12] 44.7% | viability, T/C (second compound 10 µM, first compound 1 µM) 50.3% | viability, T/C (second compound 10 µM, first compound 3.16 µM) 55% | viability, T/C (second compound 10 µM, first compound 10 µM) 51%
